This is an account of results in patent US5045531A, “Wound treatment employing biologically active ion channel forming peptides and proteins” (Magainin Sciences Inc., priority 1989, dated 1991).

No end group written: not given here.

Experiment [1] relates to cortisone inhibition of wound healing. To be noted: antagonism of cortisone-inhibited wound healing; cited from earlier work.
Experiment [2] has as its system polyvinylchloride sponge disc implants (wound healing). Put plainly: Collagen content of subcutaneous polyvinylchloride sponge disc implants in rats (pepsin extracted native collagen). In kind it is in vivo, rat. The following applies: at seven days, control group 3.43 mg/sponge. The source says:
(§1) Twenty-two male rats weighing between 300 g and 325 g were anesthetized, after which their backs and abdomens were shaved and washed with 70% ethanol. Three modified polyvinylchloride sponge discs 2 mm thick and 15 mm in diameter were implanted in each rat abdominally in subcutaneous pockets made under the skin. Two of the implants were cut in half and rejoined before the implantation, and the remaining disc was sandwiched between two silicone discs which forced granulation tissue infiltration to occur from the periphery of the disc. A single 15 mm×15 mm square full excision wound was made on the back and the wound edges tattooed.
(§2) The rats were then divided into four groups. A first, or control, group of four rats received sham injections daily. A second group of four rats received daily intramuscular injections of 10 mg of cortisone acetate. Cortisone is known to be an inhibitor of wound healing. A third group of seven rats received daily intramuscular injections of 0.3 mg of amide-terminated Magainin II. A fourth group of seven rats received daily intramuscular injections of 10 mg of cortisone acetate and 0.3 mg of Magainin II at separate sites. At seven days, rat weights were recorded, wound sizes measured, and the implants harvested. The staple which joined the two disc halves together was carefully removed and the breaking strength measured. Collagen content from the implant halves from each treatment group was measured by weighing the pepsin extracted native collagen. The sponge halves are homogenized in 0.5M ice-cold acetic acid containing 0.1 mg of pepsin per ml. The homogenate was stirred for 24 hours at 4° C., centrifuged, and supernatants saved. The native solubilized collagen was isolated by adding sodium chloride to 10 % w/v. The salt precipitate was collected by centrifugation (10,000× g for 10 min.) and then taken up in 145 mM potassium phosphate buffer pH7.6, exhaustively dialyzed against 1 mM HCl, lyophilized and its dry weight recorded. Confirmation of collagen purity was made by SDS polyacrylamide gel electrophoresis. […]

Experiment [3] has the same test system. The experiment is described as follows: Wound breaking strength of rejoined sponge disc halves implanted in rats. The experiment is classed as in vivo, rat. The following applies: at seven days, control group 440 g.
From the text: as §1, §2

Experiment [4] deals with full excision wound. Put plainly: Wound contraction of 15 mm x 15 mm square full excision wound on the back of rats. The experiment is classed as in vivo, rat. To be noted: for average wound contraction: at seven days, control group 67%.
From the text: as §1
The rats were then divided into four groups. A first, or control, group of four rats received sham injections daily. A second group of four rats received daily intramuscular injections of 10 mg of cortisone acetate. Cortisone is known to be an inhibitor of wound healing. A third group of seven rats received daily intramuscular injections of 0.3 mg of amide-terminated Magainin II. A fourth group of seven rats received daily intramuscular injections of 10 mg of cortisone acetate and 0.3 mg of Magainin II at separate sites. At seven days, rat weights were recorded, wound sizes measured, and the implants harvested. The staple which joined the two disc halves together was carefully removed and the breaking strength measured. Collagen content from the implant halves from each treatment group was measured by weighing the pepsin extracted native collagen. The sponge halves are homogenized in 0.5M ice-cold acetic acid containing 0.1 mg of pepsin per ml. The homogenate was stirred for 24 hours at 4° C., centrifuged, and supernatants saved. The native solubilized collagen was isolated by adding sodium chloride to 10 % w/v. The salt precipitate was collected by centrifugation (10,000× g for 10 min.) and then taken up in 145 mM potassium phosphate buffer pH7.6, exhaustively dialyzed against 1 mM HCl, lyophilized and its dry weight recorded. Confirmation of collagen purity was made by SDS polyacrylamide gel electrophoresis. Pepsin digestion extracts only native collagen, needed for the formation of collagen fibers. The accumulations of collagen in the early stages of healing are responsible for gain in wound tensile strength. Collagen content from the implants taken from the group treated with cortisone acetate alone averged 0.82 mg/sponge, as compared with 3.43 mg/sponge for the control group.

[5] abbreviates: cortisone acetate alone, 10 mg daily intramuscular.
The mark [6] stands for this setting: 0.3 mg Magainin II plus 10 mg cortisone acetate daily intramuscular at separate sites.
The mark [7] stands for this setting: Magainin II alone, 0.3 mg daily intramuscular.

Regarding Vitamin A, in experiment [1], the “restoring connective tissue deposition” value is recorded as “effective in restoring connective tissue deposition” and the restoring wound contraction entry was “ineffective in restoring wound contraction”.

`CC(=O)OCC(=O)[C@@]1(O)CC[C@H]2[C@@H]3CCC4=CC(=O)CC[C@]4(C)[C@H]3C(=O)C[C@@]21C` [cortisone acetate]: in experiment [2] (setting [5]), the average collagen content is 0.82 mg/sponge. In addition, in experiment [3] (setting [5]), the “average wound breaking strength” value is 195 g. The average wound contraction in experiment [4] (setting [5]) is given as 28%.

Turning to “growth hormone: other antagonist of cortisone inhibition of wound healing”, in experiment [1], the “restoring connective tissue deposition” value is given as “effective in restoring connective tissue deposition” and the restoring wound contraction result was “ineffective in restoring wound contraction”.

With “GIGKFLHSAKKFGKAFVGEIMNS-NH2 [Magainin II]”, the average collagen content is 3.20 mg/sponge in experiment [2] (setting [6]) and 3.82 mg/sponge in experiment [2] (setting [7]). In addition, the “average wound breaking strength” value in experiment [3] (setting [6]) turned out to be 320 g; in experiment [3] (setting [7]), 415 g. The average wound contraction in experiment [4] (setting [6]) stood at 53%; in experiment [4] (setting [7]), 65%. The “effect on cortisone inhibition of wound healing (collagen deposition and wound contraction)” value in experiment [4] (rats given cortisone acetate and Magainin II, conclusion in words) is recorded as “antagonistic of cortisone inhibition of wound healing”.
